Measurements published in ChEMBL document CHEMBL2417377, “Hit-to-lead optimization and kinase selectivity of imidazo[1,2-a]quinoxalin-4-amine derived JNK1 inhibitors” (Bioorg Med Chem Lett, 2013).

What was measured:
[1] = target: Tyrosine-protein kinase Fer (Homo sapiens) (UniProt P16591); assay: Inhibition of FER in human PC3 cell lysates at 10 uM using desthiobiotin-tagged ATP probe AX9989 followed by trypsinization by LC/MS analysis; conditions: PC-3
[2] = target: Epidermal growth factor receptor (Homo sapiens) (UniProt P00533); assay: Inhibition of EGFR in human PC3 cell lysates at 10 uM using desthiobiotin-tagged ATP probe AX9989 followed by trypsinization by LC/MS analysis; conditions: PC-3
Chain of Epidermal growth factor receptor (Homo sapiens) (P00533 whole entry): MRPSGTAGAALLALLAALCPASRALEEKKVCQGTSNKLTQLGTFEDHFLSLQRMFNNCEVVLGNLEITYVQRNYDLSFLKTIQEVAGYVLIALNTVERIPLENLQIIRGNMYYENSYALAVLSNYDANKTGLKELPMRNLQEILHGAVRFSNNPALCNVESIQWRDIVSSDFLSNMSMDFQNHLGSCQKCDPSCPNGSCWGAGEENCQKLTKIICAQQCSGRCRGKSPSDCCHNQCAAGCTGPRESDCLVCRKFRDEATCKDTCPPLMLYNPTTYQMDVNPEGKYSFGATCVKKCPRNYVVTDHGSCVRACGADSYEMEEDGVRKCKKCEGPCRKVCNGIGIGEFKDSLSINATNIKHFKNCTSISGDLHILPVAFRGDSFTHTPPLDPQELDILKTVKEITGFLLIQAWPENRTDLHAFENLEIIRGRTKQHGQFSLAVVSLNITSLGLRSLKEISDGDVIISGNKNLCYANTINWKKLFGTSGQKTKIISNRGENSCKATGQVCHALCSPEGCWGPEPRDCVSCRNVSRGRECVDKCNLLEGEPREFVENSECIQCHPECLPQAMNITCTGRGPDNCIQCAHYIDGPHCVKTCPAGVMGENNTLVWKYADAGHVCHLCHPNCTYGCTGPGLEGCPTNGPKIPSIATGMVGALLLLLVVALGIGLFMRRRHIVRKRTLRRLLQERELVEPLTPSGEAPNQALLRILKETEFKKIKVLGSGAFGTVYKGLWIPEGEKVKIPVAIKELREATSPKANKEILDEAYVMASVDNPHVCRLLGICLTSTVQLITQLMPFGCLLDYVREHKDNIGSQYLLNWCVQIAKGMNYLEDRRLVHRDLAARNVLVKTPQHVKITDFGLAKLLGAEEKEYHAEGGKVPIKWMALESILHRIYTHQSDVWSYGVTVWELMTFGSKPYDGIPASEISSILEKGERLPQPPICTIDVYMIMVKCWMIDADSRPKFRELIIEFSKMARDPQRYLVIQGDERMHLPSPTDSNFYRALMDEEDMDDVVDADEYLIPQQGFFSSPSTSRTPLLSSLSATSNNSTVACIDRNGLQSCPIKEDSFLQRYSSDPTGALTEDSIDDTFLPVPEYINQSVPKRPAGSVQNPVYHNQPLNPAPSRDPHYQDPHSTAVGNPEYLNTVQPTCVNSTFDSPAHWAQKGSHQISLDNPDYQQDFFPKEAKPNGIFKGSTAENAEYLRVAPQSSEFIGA

[3] = target: Cyclin-dependent kinase 8 (Homo sapiens) (UniProt P49336); assay: Inhibition of CDK8 in human PC3 cell lysates at 10 uM using desthiobiotin-tagged ATP probe AX9989 followed by trypsinization by LC/MS analysis; conditions: PC-3
Chain of Cyclin-dependent kinase 8 (Homo sapiens) (P49336 whole entry): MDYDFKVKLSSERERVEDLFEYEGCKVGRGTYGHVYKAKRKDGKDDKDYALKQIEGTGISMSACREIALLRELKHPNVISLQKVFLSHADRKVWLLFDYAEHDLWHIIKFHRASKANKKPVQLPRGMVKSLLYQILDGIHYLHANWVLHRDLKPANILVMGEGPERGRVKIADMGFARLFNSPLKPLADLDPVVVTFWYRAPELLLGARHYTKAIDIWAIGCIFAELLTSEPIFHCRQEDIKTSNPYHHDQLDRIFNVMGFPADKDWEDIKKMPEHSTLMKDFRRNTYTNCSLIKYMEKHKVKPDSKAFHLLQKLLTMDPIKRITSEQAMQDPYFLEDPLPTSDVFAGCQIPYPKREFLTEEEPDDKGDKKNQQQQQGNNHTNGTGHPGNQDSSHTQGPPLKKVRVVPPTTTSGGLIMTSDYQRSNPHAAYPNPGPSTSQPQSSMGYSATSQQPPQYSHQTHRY

PC-3 = assay: Inhibition of ANPbeta in human PC3 cell lysates at 10 uM using desthiobiotin-tagged ATP probe AX9989 followed by trypsinization by LC/MS analysis; format: cell-free
[4] = target: Phosphatidylinositol 4,5-bisphosphate 3-kinase catalytic subunit beta isoform (Homo sapiens) (UniProt P42338); assay: Inhibition of PIK3CB in human PC3 cell lysates at 10 uM using desthiobiotin-tagged ATP probe AX9989 followed by trypsinization by LC/MS analysis; conditions: PC-3
[5] = target: Cyclin-dependent kinase 16 (Homo sapiens) (UniProt Q00536); assay: Inhibition of PCTAIRE1 in human PC3 cell lysates at 10 uM using desthiobiotin-tagged ATP probe AX9989 followed by trypsinization by LC/MS analysis; conditions: PC-3
Chain of Cyclin-dependent kinase 16 (Homo sapiens) (Q00536 whole entry): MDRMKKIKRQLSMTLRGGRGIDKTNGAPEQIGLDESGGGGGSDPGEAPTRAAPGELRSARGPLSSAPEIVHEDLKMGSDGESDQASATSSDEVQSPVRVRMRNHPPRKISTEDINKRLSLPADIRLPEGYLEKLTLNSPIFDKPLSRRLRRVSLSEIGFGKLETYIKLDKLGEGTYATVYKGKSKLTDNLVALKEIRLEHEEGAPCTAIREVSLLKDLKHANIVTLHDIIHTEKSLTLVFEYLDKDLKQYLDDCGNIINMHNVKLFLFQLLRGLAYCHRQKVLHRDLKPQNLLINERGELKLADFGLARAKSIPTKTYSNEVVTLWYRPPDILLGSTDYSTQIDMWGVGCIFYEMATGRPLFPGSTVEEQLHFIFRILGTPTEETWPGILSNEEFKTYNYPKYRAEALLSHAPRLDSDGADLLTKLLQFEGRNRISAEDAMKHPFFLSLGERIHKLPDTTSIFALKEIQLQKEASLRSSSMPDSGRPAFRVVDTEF

[6] = target: T1, SNF-related serine/threonine-protein kinase (Homo sapiens) (UniProt Q9NRH2); assay: Inhibition of SNRK in human PC3 cell lysates at 10 uM using desthiobiotin-tagged ATP probe AX9989 followed by trypsinization by LC/MS analysis; conditions: PC-3
T1 sequence (whole entry): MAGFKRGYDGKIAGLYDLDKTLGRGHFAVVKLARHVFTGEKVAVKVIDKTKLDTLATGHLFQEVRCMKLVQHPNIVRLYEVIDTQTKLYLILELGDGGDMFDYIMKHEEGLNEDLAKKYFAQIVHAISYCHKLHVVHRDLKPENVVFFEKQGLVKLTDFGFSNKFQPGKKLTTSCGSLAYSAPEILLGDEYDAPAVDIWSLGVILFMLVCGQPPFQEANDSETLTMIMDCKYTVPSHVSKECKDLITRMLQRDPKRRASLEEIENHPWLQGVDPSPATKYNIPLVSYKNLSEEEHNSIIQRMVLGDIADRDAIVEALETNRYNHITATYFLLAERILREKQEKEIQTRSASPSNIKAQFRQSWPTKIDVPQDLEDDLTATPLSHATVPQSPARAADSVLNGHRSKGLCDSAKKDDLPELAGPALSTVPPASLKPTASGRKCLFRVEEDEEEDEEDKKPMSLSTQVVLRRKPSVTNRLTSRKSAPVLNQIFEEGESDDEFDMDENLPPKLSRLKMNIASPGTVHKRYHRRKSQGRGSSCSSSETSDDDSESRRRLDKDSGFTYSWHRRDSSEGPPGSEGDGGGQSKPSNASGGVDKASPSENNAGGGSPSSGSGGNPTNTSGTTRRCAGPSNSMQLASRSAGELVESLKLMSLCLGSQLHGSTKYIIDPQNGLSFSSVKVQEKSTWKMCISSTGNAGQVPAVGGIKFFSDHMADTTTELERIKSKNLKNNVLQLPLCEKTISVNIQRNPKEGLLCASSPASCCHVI

[7] = target: T2, Serine/threonine-protein kinase 4 (Homo sapiens) (UniProt Q13043); assay: Inhibition of MST1 in human PC3 cell lysates at 10 uM using desthiobiotin-tagged ATP probe AX9989 followed by trypsinization by LC/MS analysis; conditions: PC-3
T2 sequence (whole entry): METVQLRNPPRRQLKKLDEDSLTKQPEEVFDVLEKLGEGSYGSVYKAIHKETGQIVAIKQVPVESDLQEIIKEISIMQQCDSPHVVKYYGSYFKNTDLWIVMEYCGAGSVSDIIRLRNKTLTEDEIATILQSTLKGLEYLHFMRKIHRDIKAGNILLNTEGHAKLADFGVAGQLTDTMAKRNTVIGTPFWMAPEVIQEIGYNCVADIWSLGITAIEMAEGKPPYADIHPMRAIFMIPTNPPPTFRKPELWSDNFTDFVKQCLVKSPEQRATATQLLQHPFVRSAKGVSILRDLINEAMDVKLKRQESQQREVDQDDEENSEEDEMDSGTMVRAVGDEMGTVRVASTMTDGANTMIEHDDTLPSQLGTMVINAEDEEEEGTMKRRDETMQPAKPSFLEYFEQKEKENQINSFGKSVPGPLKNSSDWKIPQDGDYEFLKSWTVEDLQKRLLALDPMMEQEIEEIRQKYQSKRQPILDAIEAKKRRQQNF

[8] = target: Mitogen-activated protein kinase kinase kinase 11 (Homo sapiens) (UniProt Q16584); assay: Inhibition of MLK3 in human PC3 cell lysates at 10 uM using desthiobiotin-tagged ATP probe AX9989 followed by trypsinization by LC/MS analysis; conditions: PC-3
[9] = target: Hepatocyte growth factor receptor (Homo sapiens) (UniProt P08581); assay: Inhibition of MET in human PC3 cell lysates at 10 uM using desthiobiotin-tagged ATP probe AX9989 followed by trypsinization by LC/MS analysis; conditions: PC-3
Chain of Hepatocyte growth factor receptor (Homo sapiens) (P08581 whole entry): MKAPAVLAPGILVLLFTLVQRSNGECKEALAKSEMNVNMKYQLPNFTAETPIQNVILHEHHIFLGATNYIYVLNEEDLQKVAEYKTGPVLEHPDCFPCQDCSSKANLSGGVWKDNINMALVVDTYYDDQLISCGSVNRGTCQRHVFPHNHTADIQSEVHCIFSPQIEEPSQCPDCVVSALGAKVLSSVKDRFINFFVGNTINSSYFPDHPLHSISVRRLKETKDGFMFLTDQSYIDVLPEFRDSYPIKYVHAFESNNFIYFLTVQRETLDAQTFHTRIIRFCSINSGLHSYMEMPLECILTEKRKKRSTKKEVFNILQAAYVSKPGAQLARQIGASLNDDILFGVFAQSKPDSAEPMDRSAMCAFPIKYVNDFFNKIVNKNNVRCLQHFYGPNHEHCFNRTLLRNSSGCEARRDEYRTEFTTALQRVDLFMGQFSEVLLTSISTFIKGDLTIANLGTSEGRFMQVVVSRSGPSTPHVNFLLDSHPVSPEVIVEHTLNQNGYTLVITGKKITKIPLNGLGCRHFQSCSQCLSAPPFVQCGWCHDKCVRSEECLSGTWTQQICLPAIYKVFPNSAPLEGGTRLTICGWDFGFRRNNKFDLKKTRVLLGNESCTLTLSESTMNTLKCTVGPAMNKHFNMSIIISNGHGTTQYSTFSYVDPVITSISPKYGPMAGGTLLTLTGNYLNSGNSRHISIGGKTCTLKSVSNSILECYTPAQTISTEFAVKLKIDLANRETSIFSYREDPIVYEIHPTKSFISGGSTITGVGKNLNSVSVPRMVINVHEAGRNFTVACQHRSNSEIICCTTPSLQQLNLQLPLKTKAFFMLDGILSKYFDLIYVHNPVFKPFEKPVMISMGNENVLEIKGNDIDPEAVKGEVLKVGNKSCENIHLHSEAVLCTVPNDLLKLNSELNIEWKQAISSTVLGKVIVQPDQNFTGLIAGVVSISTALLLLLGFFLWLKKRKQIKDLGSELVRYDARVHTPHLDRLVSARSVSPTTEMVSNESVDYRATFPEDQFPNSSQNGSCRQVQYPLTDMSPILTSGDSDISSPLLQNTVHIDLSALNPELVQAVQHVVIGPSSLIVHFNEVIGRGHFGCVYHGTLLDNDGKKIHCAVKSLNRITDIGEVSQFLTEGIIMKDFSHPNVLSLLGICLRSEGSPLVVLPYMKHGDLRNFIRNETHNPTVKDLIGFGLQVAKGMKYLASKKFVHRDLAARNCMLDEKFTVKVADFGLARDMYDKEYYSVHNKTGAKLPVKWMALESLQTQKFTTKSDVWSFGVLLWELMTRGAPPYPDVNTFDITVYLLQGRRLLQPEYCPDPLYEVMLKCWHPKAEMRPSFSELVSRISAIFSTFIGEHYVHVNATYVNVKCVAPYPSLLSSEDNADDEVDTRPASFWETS

Chain of Tyrosine-protein kinase Fer (Homo sapiens) (P16591 whole entry, looked up): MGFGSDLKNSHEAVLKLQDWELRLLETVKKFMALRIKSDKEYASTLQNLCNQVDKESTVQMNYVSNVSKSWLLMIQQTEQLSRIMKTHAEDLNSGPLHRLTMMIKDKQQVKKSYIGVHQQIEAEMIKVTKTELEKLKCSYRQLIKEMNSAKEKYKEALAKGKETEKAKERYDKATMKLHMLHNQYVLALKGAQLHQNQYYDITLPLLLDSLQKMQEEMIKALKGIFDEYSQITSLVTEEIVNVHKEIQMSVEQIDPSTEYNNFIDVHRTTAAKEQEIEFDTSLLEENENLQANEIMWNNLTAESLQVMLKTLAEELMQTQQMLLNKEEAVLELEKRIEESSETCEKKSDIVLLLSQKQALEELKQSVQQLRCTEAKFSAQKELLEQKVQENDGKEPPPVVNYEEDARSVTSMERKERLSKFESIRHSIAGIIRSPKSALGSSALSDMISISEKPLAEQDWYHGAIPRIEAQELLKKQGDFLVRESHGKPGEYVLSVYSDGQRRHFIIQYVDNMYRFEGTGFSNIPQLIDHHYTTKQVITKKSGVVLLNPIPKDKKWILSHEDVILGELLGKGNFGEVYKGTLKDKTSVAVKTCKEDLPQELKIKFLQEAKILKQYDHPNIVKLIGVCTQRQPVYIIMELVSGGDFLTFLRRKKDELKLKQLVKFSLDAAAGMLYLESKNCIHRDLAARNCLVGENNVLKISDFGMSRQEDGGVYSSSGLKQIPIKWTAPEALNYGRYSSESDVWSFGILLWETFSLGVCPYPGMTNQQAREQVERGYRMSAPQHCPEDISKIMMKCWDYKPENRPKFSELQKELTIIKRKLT

SMILES	inhibition [1] [%]	inhibition [2] [%]	inhibition [3] [%]	inhibition [4] [%]	inhibition [5] [%]	inhibition [6] [%]	inhibition [7] [%]	inhibition [8] [%]	inhibition [9] [%]	inhibition (PC-3) [%]
CC(C)(NC(=O)c1ccc2nc(N[C@H]3CC[C@H](O)CC3)c3nccn3c2c1)c1ccccc1	< 35	< 35	< 35	< 35	< 35	< 35	< 35	< 35	< 35	< 35
NC(=O)c1ccc2nc(N[C@H]3CC[C@H](O)CC3)c3nccn3c2c1	< 35	< 35	< 35	< 35	< 35	< 35	< 35	< 35	< 35	< 35
O=C(NC1(c2ccccc2)CC1)c1ccc2nc(N[C@H]3CC[C@H](O)CC3)c3nccn3c2c1	< 35	< 35	< 35	< 35	< 35	< 35	< 35	< 35	< 35	< 35
O=C(NC1(Cc2ccc(F)cc2)CC1)c1ccc2nc(N[C@H]3CC[C@H](O)CC3)c3nccn3c2c1	< 35	< 35	< 35	< 35	< 35	< 35	< 35	< 35	< 35	< 35
O=C(NC1(c2ccccc2)CCC1)c1ccc2nc(N[C@H]3CC[C@H](O)CC3)c3nccn3c2c1	< 35	< 35	< 35	< 35	< 35	< 35	< 35	< 35	< 35	< 35
O=C(NC1(c2ccc(F)cc2)CC1)c1ccc2nc(N[C@H]3CC[C@H](O)CC3)c3nccn3c2c1	< 35	< 35	< 35	< 35	< 35	< 35	< 35	< 35	< 35	< 35
O=C(O)c1ccc2nc(N[C@H]3CC[C@H](O)CC3)c3nccn3c2c1	< 35	< 35	< 35	37.1	71.1	< 35	< 35	< 35	< 35	< 35

Second part, led by results:

inhibition [1] [%]	inhibition [2] [%]	inhibition [3] [%]	inhibition [4] [%]	inhibition [5] [%]	inhibition [6] [%]	inhibition [7] [%]	inhibition [8] [%]	inhibition [9] [%]	SMILES	inhibition (PC-3) [%]
< 35	< 35	< 35	< 35	< 35	< 35	< 35	< 35	< 35	O=C(N[C@H](CO)c1ccccc1)c1ccc2nc(N[C@H]3CC[C@H](O)CC3)c3nccn3c2c1	< 35
< 35	< 35	< 35	< 35	< 35	< 35	< 35	< 35	< 35	CCC[C@@H](NC(=O)c1ccc2nc(N[C@H]3CC[C@H](O)CC3)c3nccn3c2c1)c1ccccc1	< 35
< 35	< 35	< 35	< 35	< 35	< 35	< 35	< 35	< 35	C[C@@H](NC(=O)c1ccc2nc(N[C@H]3CC[C@H](O)CC3)c3nccn3c2c1)c1ccccc1	< 35
< 35	< 35	< 35	< 35	< 35	< 35	< 35	< 35	< 35	CC[C@@H](NC(=O)c1ccc2nc(N[C@H]3CC[C@H](O)CC3)c3nccn3c2c1)c1ccccc1	< 35
< 35	< 35	< 35	< 35	< 35	< 35	< 35	< 35	< 35	C[C@H](NC(=O)c1ccc2nc(N[C@H]3CC[C@H](O)CC3)c3nccn3c2c1)c1ccccc1	< 35
